According to patent US20100022766A1, “BIOSYNTHETIC GENE CLUSTER FOR THE PRODUCTION OF A COMPLEX POLYKETIDE” (WYETH, priority 2008, published 2010):

Experiments:
[1] = test system: cultured cortical neurons; test: total neurite length in cultured cortical neurons; format: cell-based, rat; settings: 72 hours
Method: Dissociated cortical neuron cultures were prepared as previously described (Pong et al., cited above, 2001). Briefly, embryonic day 15 rat fetuses were collected and dissected in ice-cold PBS. Dissected cortices were pooled together and transferred to an enzymatic dissociation medium containing papain. After 30 minutes, the tissue was mechanically triturated with a fire-polished glass Pasteur pipette. Single-cell suspensions in complete media were seeded on poly-L-ornithine and laminin coated 96-well plates. After 24 hours, cultures were treated with various concentrations of the compound of formula III for 72 hours. The cultures were then fixed and stained with an anti-tubulin primary antibody (TU-1) and a fluorescent-tagged secondary antibody. Neurite outgrowth was determined by using the Enhanced Neurite Outgrowth (ENO) algorithm with the Cellomics ArrayScan and expressed as total neurite length per cell.

cortical neuron cultures = test: cortical neuron assay, neurite outgrowth (Cellomics ArrayScan ENO); format: cell-based; settings: Rattus norvegicus, Cortical neurone, 72 hours treatment
Method: Dissociated cortical neuron cultures were prepared as previously described [Pong et al, “Attenuation of staurosporine-induced apoptosis, oxidative stress, and mitochondrial dysfunction by synthetic superoxide dismutase and catalase mimetics, in cultured cortical neurons”, Exp Neurol. 2001 September; 171(1):84-97.] Briefly, embryonic day 15 rat fetuses were collected and dissected in ice-cold PBS. Dissected cortices were pooled together and transferred to an enzymatic dissociation medium containing papain. After 30 min, the tissue was mechanically triturated with a fire-polished glass Pasteur pipette. Single-cell suspensions in complete media were seeded on poly-L-ornithine and laminin coated 96-well plates. Twenty-four hours later, cultures were treated with various concentrations of compound of formula III for 72 hours. The cultures were then fixed and stained with an anti-tubulin antibody (TUJ-1) and a fluorescent-tagged secondary antibody. Neurite outgrowth was determined by using the Enhanced Neurite Outgrowth (ENO) algorithm with the Cellomics ArrayScan and expressed as average neurite length or neurite length per cell

[2] = test system: cultured cortical neurons; test: neurofilament content in cultured cortical neurons; format: cell-based, rat; settings: 72 hours
Method: Dissociated cortical neuron cultures were prepared as previously described [Pong et al., Exp Neurol. 2001 September; 171(1):84-97 (2001)]. Briefly, embryonic day 15 rat fetuses were collected and dissected in ice-cold PBS. Dissected cortices were pooled together and transferred to an enzymatic dissociation medium containing papain. After 30 min, the tissue was mechanically triturated with a fire-polished glass Pasteur pipette. Single-cell suspensions in complete media were seeded on poly-L-ornithine and laminin coated 96-well plates. 24 hours later, cultures were treated with various concentrations of compound of formula (III) for 72 hours. The cultures were then fixed and stained with a neurofilament primary antibody and a peroxidase-tagged secondary antibody. A peroxidase substrate (K-Blue Max) was added and the calorimetric change was measure on a calorimetric plate reader.

[3] = test system: cultured dorsal root ganglia; test: total neurite length in cultured dorsal root ganglia; format: cell-based, rat; settings: 72 hours
Method: Dissociated dorsal root ganglia cultures were prepared as previously described [A. Wood et al., “Stimulation of neurite outgrowth by immunophilin ligands: quantitative analysis by Cellomics Array scan” Society for Neuroscience (2004), abstract 104.31. Briefly, postnatal day 3-5 rat pups were euthanized. The spinal columns were removed and individual dorsal root ganglia (DRG) were dissected out. Dissected DRG were pooled together and transferred to an enzymatic dissociation medium containing papain. After 60 minutes, the tissue was mechanically triturated with a fire-polished glass Pasteur pipette. Single-cell suspensions in complete media were seeded on poly-L-ornithine and laminin coated 96-well plates. After 24 hours, cultures were treated with various concentrations of the compound of formula III for 72 hours. The cultures were then fixed and stained with an anti-tubulin primary antibody (TUJ-1) and a fluorescent-tagged secondary antibody. Neurite outgrowth was determined by using the Enhanced Neurite Outgrowth (ENO) algorithm with the Cellomics ArrayScan and expressed as total neurite length per cell.

FKBP12 = FKBP12 (Homo sapiens, UniProt P62942); settings: cited from earlier work
Chain of FKBP12 (P62942 whole entry, species assumed): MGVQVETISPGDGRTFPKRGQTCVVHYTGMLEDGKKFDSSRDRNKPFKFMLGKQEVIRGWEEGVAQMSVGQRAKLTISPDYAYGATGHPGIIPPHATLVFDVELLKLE

[4] = cited from earlier work
[5] = test system: mesencephalic dopanergic neuron cultures; test: high-affinity 3H-DA uptake in ventral mesencephalic cultures, with or without MPP+ exposure; format: cell-based, rat; settings: for protection against MPP toxicity: pre-treatment 1 hr or 24 hr, then MPP+ for 1 hr, recovery 24 hr or 48 hr, 3H-DA uptake readout
Method: Ventral mesencephalic cultures were prepared from E15 rat embryos and maintained for […] before experimentation according to the method of Pong et al., J Neurochem.
Cultures were then exposed to 10 μM 1-methyl-4-phenylpyridinium (MPP+) for 1 hr, in the presence of drug. After the 1 hr exposure, media was changed 3×, and fresh drug was added for an additional 24 hr or 48 hr.

Row | Molecule | TOTAL NEURITE LENGTH (% ABOVE CONTROL) ([1]; 10 nM) [%] | TOTAL NEURITE LENGTH (% ABOVE CONTROL) ([1]; 100 nM) [%] | TOTAL NEURITE LENGTH (% ABOVE CONTROL) ([1]; 1 μM) [%] | TOTAL NEURITE LENGTH (% ABOVE CONTROL) ([1]; 10 μM) [%] | EC50 (cortical neuron cultures) [µM] | NEUROFILAMENT CONTENT (FOLD-INCREASE ABOVE CONTROL) ([2]; 10 nM) | NEUROFILAMENT CONTENT (FOLD-INCREASE ABOVE CONTROL) ([2]; 100 nM) | NEUROFILAMENT CONTENT (FOLD-INCREASE ABOVE CONTROL) ([2]; 1 μM) | NEUROFILAMENT CONTENT (FOLD-INCREASE ABOVE CONTROL) ([2]; 10 μM) | TOTAL NEURITE LENGTH (% ABOVE CONTROL) ([3]; 10 nM) [%] | TOTAL NEURITE LENGTH (% ABOVE CONTROL) ([3]; 100 nM) [%] | TOTAL NEURITE LENGTH (% ABOVE CONTROL) ([3]; 1 μM) [%] | TOTAL NEURITE LENGTH (% ABOVE CONTROL) ([3]; 10 μM) [%] | FKBP12 binding activity (FKBP12) | neuroprotective activity in vitro [4] | protection against MPP toxicity [5] | DA uptake ([5]; normal cultures, no MPP+)
1 | CC/C1=C\CC(/C(C)=C/C(C)C(C)O)OC(=O)C2CCCCN2C(=O)CC2(O)OC(CCC2C)CC(O)C(C)C(O)CC(O)CC(O)/C(C)=C/C(C)CC(C)C1O (stereo not drawn) [Example 9, C9-deoxomeridamycin] | 10 | 54 | 86 | 121 | < 1 | 1.9 FOLD-INCREASE ABOVE CONTROL | 2.19 FOLD-INCREASE ABOVE CONTROL | 2.24 FOLD-INCREASE ABOVE CONTROL | 2.29 FOLD-INCREASE ABOVE CONTROL | 17 | 24 | 36 | 64 |  |  |  | 
2 | CC/C1=C\CC(/C(C)=C/C(C)C(C)O)OC(=O)C2CCCCN2C(=O)C(=O)C2(O)OC(CCC2C)CC(O)C(C)C(O)CC(O)CC(O)/C(C)=C/C(C)CC(C)C1O (stereo not drawn) [meridamycin, Meridamycin] |  |  |  |  |  |  |  |  |  |  |  |  |  | strong FKBP12 binding activity | significant neuroprotective activity in vitro | partial, but significant protection | 
3 | GDNF: glial-derived neurotrophic factor, used as control (protein, UniProt P39905 78-211, looked up) Glial cell line-derived …: SPDKQMAVLPRRERNRQAAAANPENSRGKGRRGQRGKNRGCVLTAIHLNVTDLGLGYETKEELIFRYCSGSCDAAETTYDKILKNLSRNRRLVSDKVGQACCRPIAFDDDLSFLDDNLVYHILRKHSAKRCGCI |  |  |  |  |  |  |  |  |  |  |  |  |  |  |  | partial, but significant protection | enhanced DA uptake
